# According to patent US20250195524A1, “PYRIMIDO-PYRIDAZINONE COMPOUND AS TOLL-LIKE RECEPTOR AGONIST” (SHANGHAI VISONPHARMA CO., LTD., priority 2022, published 2025):
# Experiments:
# human TLR8 = molecular target: T1, human TLR8 (Homo sapiens, UniProt Q9NR97); experiment: HEK-Blue hTLR8 SEAP reporter gene agonism assay; format: cell-based; conditions: HEK-Blue hTLR8 cells, SEAP (Quanti-blue, 650 nm), 16-22 hours incubation
# T1 construct: host or cells: HEK-Blue hTLR8 (HEK293-derived reporter cells)
# T1 sequence (Q9NR97 27-1041): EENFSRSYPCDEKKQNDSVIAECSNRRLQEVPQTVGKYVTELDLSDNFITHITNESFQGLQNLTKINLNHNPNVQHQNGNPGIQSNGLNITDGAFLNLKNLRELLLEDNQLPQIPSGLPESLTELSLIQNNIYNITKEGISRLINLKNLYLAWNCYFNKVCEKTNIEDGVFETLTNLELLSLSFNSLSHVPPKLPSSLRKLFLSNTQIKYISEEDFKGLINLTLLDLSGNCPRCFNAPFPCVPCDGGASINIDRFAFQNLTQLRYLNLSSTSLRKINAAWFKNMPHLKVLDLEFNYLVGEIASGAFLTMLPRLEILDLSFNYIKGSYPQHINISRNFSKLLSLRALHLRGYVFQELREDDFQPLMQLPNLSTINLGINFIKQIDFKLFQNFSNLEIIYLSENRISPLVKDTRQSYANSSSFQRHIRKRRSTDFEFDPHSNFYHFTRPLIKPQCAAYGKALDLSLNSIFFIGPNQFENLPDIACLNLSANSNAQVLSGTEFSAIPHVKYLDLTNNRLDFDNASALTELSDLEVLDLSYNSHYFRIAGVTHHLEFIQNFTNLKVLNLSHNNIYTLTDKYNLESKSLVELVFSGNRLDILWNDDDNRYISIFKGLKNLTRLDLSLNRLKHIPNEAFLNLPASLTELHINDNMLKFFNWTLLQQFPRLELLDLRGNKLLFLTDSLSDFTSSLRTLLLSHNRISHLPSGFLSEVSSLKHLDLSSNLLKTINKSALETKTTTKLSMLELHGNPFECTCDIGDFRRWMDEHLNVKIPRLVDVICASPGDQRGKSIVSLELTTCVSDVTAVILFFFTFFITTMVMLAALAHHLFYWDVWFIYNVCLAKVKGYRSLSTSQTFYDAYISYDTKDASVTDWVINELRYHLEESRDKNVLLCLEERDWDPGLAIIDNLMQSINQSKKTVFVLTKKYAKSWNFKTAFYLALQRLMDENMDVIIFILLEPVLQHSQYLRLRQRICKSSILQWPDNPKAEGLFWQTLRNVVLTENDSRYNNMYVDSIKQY
# Method: (§1) The agonistic activity of the compounds of the present invention on TLR7 or TLR8 was evaluated using HEK-Blue™ cells stably expressing human TLR7 or TLR8. And the agonistic activity was assayed using their ability to induce the SEAP reporter gene under the control of the IFN-β minimal promoter fused to five NF-κB and ap-1 binding sites, specifically as follows:
# (§2) HEK-Blue™ hTLR7 (Invivogen, 80,000 cells per well) or HEK-Blue™ hTLR8 (Invivogen, 60,000 cells per well) was added to a 96-well cell culture plate, the compound to be tested is added whereafter, and the final concentration of the compound(s) to be tested in the medium ranged from 0.001 to 36 μM, then incubated for 16-22 hours. SEAP levels in the cell culture medium were detected using HEK-Blue assay reagent Quanti-blue (Invivogen) according to the manufacturer's instructions. Neo2 Multifunctional Enzyme Labeler (Bio-tek) was used to determine the light absorption at 650 nm. GraphPad Prism was utilized to calculate the EC50, which is the half effective concentration of the drug.
# human TLR7 = molecular target: T2, human TLR7 (Homo sapiens, UniProt Q9NYK1); experiment: HEK-Blue hTLR7 SEAP reporter gene agonism assay; format: cell-based; conditions: HEK-Blue hTLR7 cells, SEAP (Quanti-blue, 650 nm), 16-22 hours incubation
# T2 construct: host or cells: HEK-Blue hTLR7 (HEK293-derived reporter cells)
# T2 sequence (Q9NYK1 27-1049): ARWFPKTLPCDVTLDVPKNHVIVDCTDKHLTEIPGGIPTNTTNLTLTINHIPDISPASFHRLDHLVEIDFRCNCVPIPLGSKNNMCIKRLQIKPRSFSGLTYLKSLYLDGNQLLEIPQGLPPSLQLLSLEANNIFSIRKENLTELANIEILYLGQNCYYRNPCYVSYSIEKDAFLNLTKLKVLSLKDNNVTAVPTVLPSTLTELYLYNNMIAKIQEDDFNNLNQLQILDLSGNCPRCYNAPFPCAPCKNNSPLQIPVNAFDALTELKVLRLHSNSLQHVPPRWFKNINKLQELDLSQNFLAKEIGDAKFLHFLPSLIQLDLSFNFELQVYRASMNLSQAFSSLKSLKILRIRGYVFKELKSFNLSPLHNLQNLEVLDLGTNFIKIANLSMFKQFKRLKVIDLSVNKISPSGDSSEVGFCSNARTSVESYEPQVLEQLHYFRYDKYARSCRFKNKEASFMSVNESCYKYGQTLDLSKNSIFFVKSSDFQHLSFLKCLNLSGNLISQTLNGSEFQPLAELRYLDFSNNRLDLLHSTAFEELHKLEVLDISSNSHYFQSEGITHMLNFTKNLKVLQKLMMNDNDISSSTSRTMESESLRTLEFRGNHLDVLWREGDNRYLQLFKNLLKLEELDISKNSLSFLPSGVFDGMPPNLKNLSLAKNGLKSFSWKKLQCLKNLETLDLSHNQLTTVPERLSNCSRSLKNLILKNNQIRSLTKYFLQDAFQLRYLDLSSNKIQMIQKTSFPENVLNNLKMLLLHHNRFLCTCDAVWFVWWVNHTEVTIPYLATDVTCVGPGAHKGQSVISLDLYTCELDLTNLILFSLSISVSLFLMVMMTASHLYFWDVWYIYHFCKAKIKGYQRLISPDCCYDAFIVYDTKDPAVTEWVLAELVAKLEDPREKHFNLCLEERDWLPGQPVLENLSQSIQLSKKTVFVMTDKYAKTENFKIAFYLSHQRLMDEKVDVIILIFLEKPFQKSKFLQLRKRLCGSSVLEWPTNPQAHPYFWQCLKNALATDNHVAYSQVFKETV
# Method: as §1, §2
EC50 (human TLR8),EC50 (human TLR7),SMILES
149 nM,922 nM,"CCCCNc1nc(N)nc2cnn(Cc3ccc(OCCNC)cc3)c(=O)c12 [Compound I-19, 2-amino-4-(butylamino)-6-(4-(2-(methylamino)ethoxy)benzyl)pyrimido[4,5-d]pyridazin-5(6H)-one]"
194 nM,634 nM,"CCC[C@@H](C)Nc1nc(N)nc2cnn(Cc3ccc(C(=O)N4CCNCC4)cc3OC)c(=O)c12 [Compound I-24, (R)-2-amino-6-(2-methoxy-4-(piperazine-1-carbonyl)benzyl)-4-(pentan-2-ylamino)pyrimido[4,5-d]pyridazin-5(6H)-one]"
147 nM,631 nM,"CCC[C@@H](C)Nc1nc(N)nc2cnn(Cc3ccc(CN4CCCC4)cc3OC)c(=O)c12 [Compound I-25, (R)-2-amino-6-(2-methoxy-4-(pyrrolidin-1-ylmethyl)benzyl)-4-(pentan-2-ylamino)pyrimido[4,5-d]pyridazin-5(6H)-one]"
181 nM,641 nM,"CCC[C@@H](C)Nc1nc(N)nc2cnn(Cc3ccc(OCCNC)cc3)c(=O)c12 [Compound I-39, (R)-2-amino-6-(4-(2-(methylamino)ethoxy)benzyl)-4-(pentan-2-ylamino)pyrimido[4,5-d]pyridazin-5(6H)-one]"
83 nM,900 nM,"CCC[C@@H](C)Nc1nc(N)nc2cnn(Cc3ccc(CN4CCCC4)cc3)c(=O)c12 [Compound I-40, (R)-2-amino-4-(pentan-2-ylamino)-6-(4-(pyrrolidin-1-ylmethyl)benzyl)pyrimido[4,5-d]pyridazin-5(6H)-one]"
70 nM,357 nM,"CCC[C@@H](C)Nc1nc(N)nc2cnn(Cc3ccc(OCCNC)nc3)c(=O)c12 [Compound I-47, (R)-2-amino-6-((6-(2-(methylamino)ethoxy)pyridin-3-yl)methyl)-4-(pentan-2-ylamino)pyrimido[4,5-d]pyridazin-5(6H)-one]"
203 nM,921 nM,"CCC[C@@H](C)Nc1nc(N)nc2cnn(Cc3ccc(CN4CCN(C)CC4)cc3)c(=O)c12 [Compound I-48, (R)-2-amino-6-(4-((4-methylpiperazin-1-yl)methyl)benzyl)-4-(pentan-2-ylamino)pyrimido[4,5-d]pyridazin-5(6H)-one]"
73 nM,964 nM,CCC[C@@H](C)Nc1nc(N)nc2cnn(Cc3ccc(CN(C)CCO)cc3)c(=O)c12 [Compound I-49]
157 nM,770 nM,"CCC[C@@H](C)Nc1nc(N)nc2cnn(Cc3ccc(CN4CCNCC4)cc3)c(=O)c12 [Compound I-50, (R)-2-amino-4-(pentan-2-ylamino)-6-(4-(piperazin-1-ylmethyl)benzyl)pyrimido[4,5-d]pyridazin-5(6H)-one]"
141 nM,892 nM,"CCCN[C@H](C)c1ccc(Cn2ncc3nc(N)nc(N[C@H](C)CCC)c3c2=O)cc1 [Compound I-51, 2-amino-4-(((R)-pentan-2-yl)amino)-6-(4-((R)-1-(propylamino)ethyl)benzyl)pyrimido[4,5-d]pyridazine-5(6H)-one]"
125 nM,785 nM,"CCCN[C@@H](C)c1ccc(Cn2ncc3nc(N)nc(N[C@H](C)CCC)c3c2=O)cc1 [Compound I-52, 2-amino-4-(((R)-pentan-2-yl)amino)-6-(4-((S)-1-(propylamino)ethyl)benzyl)pyrimido[4,5-d]pyridazine-5(6H)-one]"
175 nM,597 nM,"CCC[C@@H](C)Nc1nc(N)nc2cnn(Cc3ccc(OCCNC)nc3OC)c(=O)c12 [Compound I-53, (R)-2-amino-6-((2-methoxy-6-(2-(methylamino)ethoxy)pyridin-3-yl)methyl)-4-(pentan-2-ylamino)pyrimido[4,5-d]pyridazin-5(6H)-one]"
107 nM,407 nM,"CCC[C@@H](C)Nc1nc(N)nc2cnn(Cc3ccc(C4CCN(C)CC4)cc3)c(=O)c12 [Compound I-57, (R)-2-amino-6-(4-(1-methylpiperidin-4-yl)benzyl)-4-(pentan-2-ylamino)pyrimido[4,5-d]pyridazin-5(6H)-one]"
192 nM,–,"CCC[C@@H](C)Nc1nc(N)nc2cnn(Cc3ccc(C(=O)N4CCN(C)CC4)cc3)c(=O)c12 [Compound I-60, (R)-2-amino-6-(4-(4-methylpiperazine-1-carbonyl)benzyl)-4-(pentan-2-ylamino)pyrimido[4,5-d]pyridazin-5(6H)-one]"
589 nM,–,"CCCCNc1nc(N)nc2cnn(Cc3ccc(CN4CCCC4)cn3)c(=O)c12 [Compound I-62, 2-amino-4-(butylamino)-6-((5-(pyrrolidin-1-ylmethyl)pyridin-2-yl)methyl)pyrimido[4,5-d]pyridazin-5(6H)-one]"
534 nM,–,"CCC[C@@H](CC)Nc1nc(N)nc2cnn(Cc3ccc(CN4CCCC4)cc3)c(=O)c12 [Compound I-63, (R)-2-amino-4-(hexan-3-ylamino)-6-(4-(pyrrolidin-1-ylmethyl)benzyl)pyrimido[4,5-d]pyridazin-5(6H)-one]"
23 nM,–,"CCC[C@@H](CO)Nc1nc(N)nc2cnn(Cc3ccc(CN4CCN(C)CC4)cc3)c(=O)c12 [Compound I-66, (S)-2-amino-4-((1-hydroxypentan-2-yl)amino)-6-(4-((4-methylpiperazin-1-yl)methyl)benzyl)pyrimido[4,5-d]pyridazin-5(6H)-one]"
51 nM,–,"CCCC[C@@H](CO)Nc1nc(N)nc2cnn(Cc3ccc(CN4CCCC4)cc3)c(=O)c12 [Compound I-67, (S)-2-amino-4-((1-hydroxyhexan-2-yl)amino)-6-(4-(pyrrolidin-1-ylmethyl)benzyl)pyrimido[4,5-d]pyridazin-5(6H)-one]"
41 nM,–,"CCC[C@@H](CO)Nc1nc(N)nc2cnn(Cc3ccc(C(=O)N4CCN(C)CC4)cc3)c(=O)c12 [Compound I-69, (S)-2-amino-4-((1-hydroxypentan-2-yl)amino)-6-(4-(4-methylpiperazine-1-carbonyl)benzyl)pyrimido[4,5-d]pyridazin-5(6H)-one]"
20 nM,–,"CCC[C@@H](CO)Nc1nc(N)nc2cnn(Cc3ccc(C(=O)N4CC5CC(C4)N5)cc3)c(=O)c12 [Compound I-70, 6-(4-(3,6-diazabicyclo[3.1.1]heptane-3-carbonyl)benzyl)-2-amino-4-(((S)-1-hydroxypentan-2-yl)amino)pyrimido[4,5-d]pyridazin-5(6H)-one]"
